Blank lines part the entries; values can stand above or below the compound they belong to. Numbered stars: 1 amine (or outer) side, 2 acyl side, 3 side chain; on linkers, the order of the positions; unused ones are H or OH. Square brackets hold non-standard residues; d marks the D form. Peptide text beside a SMILES is read from it. Gly(N-4-hydroxybenzyl) = O=C(O)CNCc1ccc(O)cc1; X1 = CSCCN(CC(=O)[*:2])[*:1]; Nlys = NCCCCNCC(=O)O
Experiments:
neutrophils [1] = assay: Superoxide anion (ROS) production in neutrophils; type: cell-based
Description: The effect of superoxide anion production in neutrophils by the peptoid-comprising analogs in which a peptoid residue was substituted for K, Y, and M in the structure of WKYMVm was measured.

neutrophils [2] = assay: Degranulation activity of neutrophils (beta-hexosaminidase activity); type: cell-based
Description: The degranulation activity of neutrophils by the analogs in which each amino acid in the structure of WKYMVm was substituted with a β-amino acid was compared and analyzed by measuring beta-hexosaminidase activity.
The degranulation activity of neutrophils by the peptoid-containing analogs in which a peptoid residue was substituted for K, Y, and M in the structure of WKYMVm was measured.

[3] = Degradation half-life in human liver S9 fraction (HPLC); type: in vitro ADME
Description: To measure the ex vivo stability of the eight analogs comprising a β^3-amino acid residue, the degradation half-life of each analog was measured in a human liver S9 fraction. The degradation half-life was measured by culturing the peptide and serum together at 37° C. and measuring the degree to which the compound was reduced using HPLC at each hour.
The ex vivo stability of the analogs to which a peptoid residue was introduced was measured using the same method as the stability measurement method for the analogs comprising a β-amino acid residue. […] On the other hand, it was confirmed that K peptoid, KY peptoid, and KM peptoid had very high stability so that more than half of them was not degraded even after 24 hours (FIG. 17).

FIG. 17 = assay: FIG. 17
Excerpt: Table printed on a drawing sheet, FIG. 17

FPR2 = FPR2 (Homo sapiens, UniProt P25090); assay: cell-based; conditions: for increase in intracellular calcium ions through activation of FPR2 (in words): FPR2-expressing RBL-2H3 cell line
Sequence of FPR2 (P25090 whole entry): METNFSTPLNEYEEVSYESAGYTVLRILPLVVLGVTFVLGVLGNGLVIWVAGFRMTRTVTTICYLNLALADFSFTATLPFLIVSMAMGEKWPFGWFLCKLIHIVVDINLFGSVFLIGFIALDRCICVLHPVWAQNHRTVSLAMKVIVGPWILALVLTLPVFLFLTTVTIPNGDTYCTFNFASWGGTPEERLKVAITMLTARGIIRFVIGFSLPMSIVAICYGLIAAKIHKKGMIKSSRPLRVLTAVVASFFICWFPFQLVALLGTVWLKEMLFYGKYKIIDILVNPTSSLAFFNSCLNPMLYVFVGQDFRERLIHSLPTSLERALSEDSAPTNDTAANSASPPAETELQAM
Description: To investigate whether activation of FPR2 is induced by the WKYMVm peptide analogs, changes in calcium ions were measured in RBL-2H3 cell line that artificially expressed FPR2.

neutrophils [4] = assay: Neutrophil chemotaxis assay using a Boyden chamber; type: cell-based; conditions: for chemotactic migration of neutrophils: from 1 nM or 10 nM to 1 μM
Description: To investigate the effect of the WKYMVm peptide analogs on the regulation of immune cell mobility, which a representative function of FPR, a chemotaxis assay was performed using a Boyden chamber.
To measure the in vitro innate immune activity of four peptides comprising one non-natural β^3-amino acid residue, the effect of enhancing neutrophil mobility was measured.

FPR1 = FPR1 (Homo sapiens, UniProt P21462); assay: cell-based; conditions: for increase in intracellular calcium ions through activation of FPR1 (in words): FPR1-expressing RBL-2H3 cell line
Sequence of FPR1 (P21462 whole entry): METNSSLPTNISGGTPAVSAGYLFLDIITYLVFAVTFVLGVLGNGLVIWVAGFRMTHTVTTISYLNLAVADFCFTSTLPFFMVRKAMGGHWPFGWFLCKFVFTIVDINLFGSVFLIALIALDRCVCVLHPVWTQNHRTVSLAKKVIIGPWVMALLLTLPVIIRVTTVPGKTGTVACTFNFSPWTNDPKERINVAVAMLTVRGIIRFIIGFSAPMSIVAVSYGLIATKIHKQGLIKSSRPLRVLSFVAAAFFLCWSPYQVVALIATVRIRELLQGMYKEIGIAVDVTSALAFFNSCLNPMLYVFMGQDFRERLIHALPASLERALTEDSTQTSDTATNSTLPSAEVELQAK
Description: To investigate whether activation of FPR1, which is important in regulating the activity of innate immune cells, is induced by the WKYMVm peptide analogs, changes in calcium ions were measured in RBL-2H3 cell line, a type of mast cell that artificially expressed FPR1. […] On the other hand, an increase in intracellular calcium ions by WKYMVβm (V is a β-amino acid) through activation of FPR1 was not observed.

neutrophils [5] = test system: neutrophils
【FIG 16】 = assay: 【FIG 16】
Excerpt: Table printed on a drawing sheet, 【FIG 16】

[6] = human liver S9 fraction, 37° C., 24-hour measurement period, read-out: degradation half-life
[7] = human liver S9 fraction, 37° C.

Half-Life [3, 6]: > 24 h
Compound: CSCC[C@H](NC(=O)[C@H](Cc1ccc(O)cc1)NC(=O)CN(CCCCN)C(=O)[C@@H](N)Cc1c[nH]c2ccccc12)C(=O)N[C@H](C(=O)N[C@H](CCSC)C(N)=O)C(C)C [K peptoid]
superoxide anion production in neutrophils (neutrophils [1]): effectively promote superoxide anion production | degranulation activity of neutrophils (neutrophils [2]): promoted the degranulation activity of neutrophils to the extent similar to the WKYMVm peptide

Half-Life ([3]; human, s9): > 24 h
Compound: CSCC[C@@H](NC(=O)[C@@H](NC(=O)CN(CCSC)C(=O)[C@H](Cc1ccc(O)cc1)NC(=O)CN(CCCCN)C(=O)[C@@H](N)Cc1c[nH]c2ccccc12)C(C)C)C(N)=O [KM peptoid] (H-W[Nlys]Y[X1]V[dM]-NH2)

Half-Life ([3]; human, s9): > 24 h
Compound: CSCC[C@H](NC(=O)CN(Cc1ccc(O)cc1)C(=O)CN(CCCCN)C(=O)[C@@H](N)Cc1c[nH]c2ccccc12)C(=O)N[C@H](C(=O)N[C@H](CCSC)C(N)=O)C(C)C [KY peptoid] (H-W[Nlys][Gly(N-4-hydroxybenzyl)]MV[dM]-NH2)

Compound: CSCC[C@@H](NC(=O)[C@@H](NC(=O)CN(CCSC)C(=O)[C@H](Cc1ccc(O)cc1)NC(=O)[C@H](CCCCN)NC(=O)[C@@H](N)Cc1c[nH]c2ccccc12)C(C)C)C(N)=O [M peptoid] (H-WKY[X1]V[dM]-NH2)
superoxide anion production in neutrophils (neutrophils [1]): effectively promote superoxide anion production | degranulation activity of neutrophils (neutrophils [2]): promoted the degranulation activity of neutrophils to the extent similar to the WKYMVm peptide | Half-Life (FIG. 17): 2.5 h

Compound: CSCC[C@@H](CC(=O)N[C@H](C(=O)N[C@H](CCSC)C(N)=O)C(C)C)NC(=O)[C@H](Cc1ccc(O)cc1)NC(=O)[C@H](CCCCN)NC(=O)[C@@H](N)Cc1c[nH]c2ccccc12 [WKYMβVm]
EC50 (FPR2): 14 nM | increase in intracellular calcium ions through activation of FPR2 (in words) (FPR2): increase in calcium ions in a concentration-dependent manner was observed | superoxide anion production in neutrophils (neutrophils [1]): induce superoxide anion production very effectively to a similar extent as the WKYMVm peptide | degranulation activity of neutrophils (neutrophils [2]): induced the degranulation activity of neutrophils very effectively to a similar extent as the WKYMVm peptide | degradation half-life / ex vivo stability compared to the WKYMVm peptide (in words) [3, 7]: half-life similar to that of the WKYMVm peptide | chemotactic migration of neutrophils (neutrophils [4]): effectively induce chemotactic migration of neutrophils in a concentration-dependent manner | EC50 (FPR1): 431 nM | increase in intracellular calcium ions through activation of FPR1 (in words) (FPR1): increase in calcium ions in a concentration-dependent manner was also observed | calcium ion-increasing effect in neutrophils (neutrophils [5]): highly induced

Compound: CSCC[C@H](NC(=O)C[C@H](Cc1ccc(O)cc1)NC(=O)[C@H](CCCCN)NC(=O)[C@@H](N)Cc1c[nH]c2ccccc12)C(=O)N[C@H](C(=O)N[C@H](CCSC)C(N)=O)C(C)C [WKYβMVm]
EC50 (FPR2): 13.9 nM | increase in intracellular calcium ions through activation of FPR2 (in words) (FPR2): increase in calcium ions in a concentration-dependent manner was observed | superoxide anion production in neutrophils (neutrophils [1]): induce superoxide anion production very effectively to a similar extent as the WKYMVm peptide | degranulation activity of neutrophils (neutrophils [2]): induced the degranulation activity of neutrophils very effectively to a similar extent as the WKYMVm peptide | degradation half-life / ex vivo stability compared to the WKYMVm peptide (in words) [3, 7]: half-life similar to that of the WKYMVm peptide | chemotactic migration of neutrophils (neutrophils [4]): effectively induce chemotactic migration of neutrophils in a concentration-dependent manner | EC50 (FPR1): 754 nM | increase in intracellular calcium ions through activation of FPR1 (in words) (FPR1): increase in calcium ions in a concentration-dependent manner was also observed | calcium ion-increasing effect in neutrophils (neutrophils [5]): highly induced

Compound: CSCC[C@@H](CC(=O)N[C@H](C(=O)N[C@H](CCSC)C(N)=O)C(C)C)NC(=O)C[C@H](Cc1ccc(O)cc1)NC(=O)[C@H](CCCCN)NC(=O)[C@@H](N)Cc1c[nH]c2ccccc12 [WKYβMβVm]
superoxide anion production in neutrophils (neutrophils [1]): effectively promoted superoxide anion production | degranulation activity of neutrophils (neutrophils [2]): effectively promoted the degranulation activity of neutrophils | degradation half-life / ex vivo stability compared to the WKYMVm peptide (in words) [3, 7]: improved ex vivo stability | effect of enhancing neutrophil mobility, compared with the WKYMVm peptide (neutrophils [4]): maintained similar activity to the WKYMVm peptide | calcium ion-increasing effect in neutrophils (neutrophils [5]): highly induced

Compound: CSCC[C@H](NC(=O)[C@H](Cc1ccc(O)cc1)NC(=O)C[C@H](CCCCN)NC(=O)[C@@H](N)Cc1c[nH]c2ccccc12)C(=O)N[C@H](C(=O)N[C@H](CCSC)C(N)=O)C(C)C [WKβYMVm]
increase in intracellular calcium ions through activation of FPR2 (in words) (FPR2): increase in calcium ions in a concentration-dependent manner was observed | superoxide anion production in neutrophils (neutrophils [1]): induce superoxide anion production very effectively to a similar extent as the WKYMVm peptide | degranulation activity of neutrophils (neutrophils [2]): induced the degranulation activity of neutrophils very effectively to a similar extent as the WKYMVm peptide | half-life increase compared to the WKYMVm peptide [3, 7]: about 1.9 times | chemotactic migration of neutrophils (neutrophils [4]): effectively induce chemotactic migration of neutrophils in a concentration-dependent manner | EC50 (FPR1): 261 nM | increase in intracellular calcium ions through activation of FPR1 (in words) (FPR1): increase in intracellular calcium ions was induced | calcium ion-increasing effect in neutrophils (neutrophils [5]): highly induced

Compound: CSCC[C@@H](CC(=O)N[C@H](C(=O)N[C@H](CCSC)C(N)=O)C(C)C)NC(=O)[C@H](Cc1ccc(O)cc1)NC(=O)C[C@H](CCCCN)NC(=O)[C@@H](N)Cc1c[nH]c2ccccc12 [WKβYMβVm]
superoxide anion production in neutrophils (neutrophils [1]): effectively promoted superoxide anion production | degranulation activity of neutrophils (neutrophils [2]): effectively promoted the degranulation activity of neutrophils | degradation half-life / ex vivo stability compared to the WKYMVm peptide (in words) [3, 7]: improved ex vivo stability | half-life increase compared to the WKYMVm peptide [3, 7]: about 3.3 times | effect of enhancing neutrophil mobility, compared with the WKYMVm peptide (neutrophils [4]): maintained similar activity to the WKYMVm peptide | calcium ion-increasing effect in neutrophils (neutrophils [5]): highly induced

Compound: CSCC[C@H](NC(=O)C[C@H](Cc1ccc(O)cc1)NC(=O)C[C@H](CCCCN)NC(=O)[C@@H](N)Cc1c[nH]c2ccccc12)C(=O)N[C@H](C(=O)N[C@H](CCSC)C(N)=O)C(C)C [WKβYβMVm]
EC50 (FPR2): 77.3 nM | increase in intracellular calcium ions through activation of FPR2 (in words) (FPR2): activated | superoxide anion production in neutrophils (neutrophils [1]): effectively promoted superoxide anion production | degranulation activity of neutrophils (neutrophils [2]): effectively promoted the degranulation activity of neutrophils | effect of enhancing neutrophil mobility, compared with the WKYMVm peptide (neutrophils [4]): slight decrease in activity | EC50 (FPR1): 2440 nM | increase in intracellular calcium ions through activation of FPR1 (in words) (FPR1): activated | calcium ion-increasing effect in neutrophils (neutrophils [5]): highly induced

Compound: CSCC[C@@H](CC(=O)N[C@H](C(=O)N[C@H](CCSC)C(N)=O)C(C)C)NC(=O)C[C@H](Cc1ccc(O)cc1)NC(=O)C[C@H](CCCCN)NC(=O)[C@@H](N)Cc1c[nH]c2ccccc12 [WKβYβMβVm]
superoxide anion production in neutrophils (neutrophils [1]): did not induce superoxide anion production | degranulation activity of neutrophils (neutrophils [2]): did not induce the degranulation activity of neutrophils | Half-Life [3, 6]: > 24 h | calcium ion-increasing effect in neutrophils (neutrophils [5]): highly induced

Compound: CSCC[C@H](NC(=O)CN(Cc1ccc(O)cc1)C(=O)[C@H](CCCCN)NC(=O)[C@@H](N)Cc1c[nH]c2ccccc12)C(=O)N[C@H](C(=O)N[C@H](CCSC)C(N)=O)C(C)C [Y peptoid] (H-WK[Gly(N-4-hydroxybenzyl)]MV[dM]-NH2)
superoxide anion production in neutrophils (neutrophils [1]): effectively promote superoxide anion production | degranulation activity of neutrophils (neutrophils [2]): promoted the degranulation activity of neutrophils to the extent similar to the WKYMVm peptide | Half-Life (FIG. 17): 1.1 h

Half-Life (【FIG 16】): 2.6 h | Half-Life (FIG. 17): 2.0 h
Compound: WKYMVm (W)

Half-Life (【FIG 16】): 2.4 h
Compound: WKYMβVm (βM)

Half-Life (【FIG 16】): 2.1 h
Compound: WKYβMVm (βY)

Half-Life (【FIG 16】): 4.9 h
Compound: WKβYMVm (βK)

Half-Life (【FIG 16】): 8.7 h
Compound: WKβYMβVm (βKβM)
